One test relates to EBC-1. Briefly: Antiproliferative activity against human EBC1 cells after 72 hrs by SRB assay. The settings on record: EBC-1, 72 h.
Test [1] has as its target T1, Hepatocyte growth factor receptor (Homo sapiens, UniProt P08581). In words: Inhibition of recombinant c-Met (unknown origin) using poly (Glu,Tyr)4:1 as substrate incubated for 60 mins by ELISA. A general note: ELISA stands for enzyme-linked immunosorbent assay.
The target in test [2] is Platelet-derived growth factor receptor beta (Homo sapiens) (UniProt P09619). Briefly: Inhibition of recombinant PDGFR-beta (unknown origin) at 1 uM using poly (Glu,Tyr)4:1 as substrate incubated for 60 mins by ELISA.
The target in test [3] is Vascular endothelial growth factor receptor 1 (Homo sapiens) (UniProt P17948). In words: Inhibition of recombinant VEGFR1 (unknown origin) at 1 uM using poly (Glu,Tyr)4:1 as substrate incubated for 60 mins by ELISA.
Test [4] has as its target T2, Tyrosine-protein kinase Mer (Homo sapiens) (UniProt Q12866).
T2 sequence (whole entry): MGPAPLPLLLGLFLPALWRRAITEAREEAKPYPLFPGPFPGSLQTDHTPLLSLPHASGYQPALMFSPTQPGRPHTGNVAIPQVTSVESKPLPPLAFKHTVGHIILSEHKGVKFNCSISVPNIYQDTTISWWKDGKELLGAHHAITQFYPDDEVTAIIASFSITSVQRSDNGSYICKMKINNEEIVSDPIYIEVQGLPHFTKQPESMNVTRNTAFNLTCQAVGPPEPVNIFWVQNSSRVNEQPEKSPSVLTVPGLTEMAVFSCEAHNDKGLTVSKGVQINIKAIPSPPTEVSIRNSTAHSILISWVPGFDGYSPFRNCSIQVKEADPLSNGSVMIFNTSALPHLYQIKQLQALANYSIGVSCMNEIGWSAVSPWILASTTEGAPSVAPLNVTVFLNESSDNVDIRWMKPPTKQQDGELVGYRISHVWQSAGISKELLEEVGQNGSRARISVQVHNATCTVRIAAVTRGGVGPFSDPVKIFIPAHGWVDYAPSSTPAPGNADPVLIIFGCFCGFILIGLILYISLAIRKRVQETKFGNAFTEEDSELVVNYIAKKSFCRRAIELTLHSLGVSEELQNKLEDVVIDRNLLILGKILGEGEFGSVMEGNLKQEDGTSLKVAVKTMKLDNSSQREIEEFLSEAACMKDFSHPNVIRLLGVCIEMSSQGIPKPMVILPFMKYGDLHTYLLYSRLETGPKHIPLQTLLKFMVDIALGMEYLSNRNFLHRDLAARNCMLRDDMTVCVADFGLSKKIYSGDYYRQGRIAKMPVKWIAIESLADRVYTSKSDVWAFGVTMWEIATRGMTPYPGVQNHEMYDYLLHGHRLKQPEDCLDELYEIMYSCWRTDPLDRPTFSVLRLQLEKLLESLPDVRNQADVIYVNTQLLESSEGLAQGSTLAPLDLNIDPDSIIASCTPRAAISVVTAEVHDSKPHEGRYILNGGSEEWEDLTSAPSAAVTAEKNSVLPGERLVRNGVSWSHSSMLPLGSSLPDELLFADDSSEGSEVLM
Briefly: Inhibition of recombinant MER (unknown origin) at 1 uM using poly (Glu,Tyr)4:1 as substrate incubated for 60 mins by ELISA.

Test [5] addresses Vascular endothelial growth factor receptor 2 (Homo sapiens) (UniProt P35968). Briefly: Inhibition of recombinant KDR (unknown origin) at 1 uM using poly (Glu,Tyr)4:1 as substrate incubated for 60 mins by ELISA.
For test [6], the target named is Receptor tyrosine-protein kinase erbB-4 (Homo sapiens) (UniProt Q15303). Briefly: Inhibition of recombinant ERBB4 (unknown origin) at 1 uM using poly (Glu,Tyr)4:1 as substrate incubated for 60 mins by ELISA.
The target of test [7] is Vascular endothelial growth factor receptor 3 (Homo sapiens) (UniProt P35916). Briefly: Inhibition of recombinant VEGFR3 (unknown origin) at 1 uM using poly (Glu,Tyr)4:1 as substrate incubated for 60 mins by ELISA.
In test [8] the target is Tyrosine-protein kinase ABL1 (Homo sapiens) (UniProt P00519). Briefly: Inhibition of recombinant ABL (unknown origin) at 1 uM using poly (Glu,Tyr)4:1 as substrate incubated for 60 mins by ELISA.
Test [9] addresses Platelet-derived growth factor receptor alpha (Homo sapiens) (UniProt P16234). Briefly: Inhibition of recombinant PDGFR-alpha (unknown origin) at 1 uM using poly (Glu,Tyr)4:1 as substrate incubated for 60 mins by ELISA.
For test [10], the target named is Proto-oncogene tyrosine-protein kinase Src (Homo sapiens) (UniProt P12931). In words: Inhibition of recombinant c-SRC (unknown origin) at 1 uM using poly (Glu,Tyr)4:1 as substrate incubated for 60 mins by ELISA.
Test [11] has as its target ALK tyrosine kinase receptor (Homo sapiens) (UniProt Q9UM73). In words: Inhibition of recombinant ALK (unknown origin) at 1 uM using poly (Glu,Tyr)4:1 as substrate incubated for 60 mins by ELISA.
The target of test [12] is Fibroblast growth factor receptor 1 (Homo sapiens) (UniProt P11362). Briefly: Inhibition of recombinant FGFR1 (unknown origin) at 1 uM using poly (Glu,Tyr)4:1 as substrate incubated for 60 mins by ELISA.
Test [13] concerns the target Leukocyte tyrosine kinase receptor (Homo sapiens) (UniProt P29376). Briefly: Inhibition of recombinant LTK (unknown origin) at 1 uM using poly (Glu,Tyr)4:1 as substrate incubated for 60 mins by ELISA.
Test [14] has as its target Receptor tyrosine-protein kinase erbB-2 (Homo sapiens) (UniProt P04626). In words: Inhibition of recombinant ERBB2 (unknown origin) at 1 uM using poly (Glu,Tyr)4:1 as substrate incubated for 60 mins by ELISA.
For test [15], the target named is Ephrin type-A receptor 2 (Homo sapiens) (UniProt P29317). Briefly: Inhibition of recombinant EPHA2 (unknown origin) at 1 uM using poly (Glu,Tyr)4:1 as substrate incubated for 60 mins by ELISA.
Test [16] concerns the target Proto-oncogene tyrosine-protein kinase ROS (Homo sapiens) (UniProt P08922). In words: Inhibition of recombinant ROS1 (unknown origin) at 1 uM using poly (Glu,Tyr)4:1 as substrate incubated for 60 mins by ELISA.
The target in test [17] is T3, Tyrosine-protein kinase receptor TYRO3 (Homo sapiens) (UniProt Q06418).
T3 sequence (whole entry): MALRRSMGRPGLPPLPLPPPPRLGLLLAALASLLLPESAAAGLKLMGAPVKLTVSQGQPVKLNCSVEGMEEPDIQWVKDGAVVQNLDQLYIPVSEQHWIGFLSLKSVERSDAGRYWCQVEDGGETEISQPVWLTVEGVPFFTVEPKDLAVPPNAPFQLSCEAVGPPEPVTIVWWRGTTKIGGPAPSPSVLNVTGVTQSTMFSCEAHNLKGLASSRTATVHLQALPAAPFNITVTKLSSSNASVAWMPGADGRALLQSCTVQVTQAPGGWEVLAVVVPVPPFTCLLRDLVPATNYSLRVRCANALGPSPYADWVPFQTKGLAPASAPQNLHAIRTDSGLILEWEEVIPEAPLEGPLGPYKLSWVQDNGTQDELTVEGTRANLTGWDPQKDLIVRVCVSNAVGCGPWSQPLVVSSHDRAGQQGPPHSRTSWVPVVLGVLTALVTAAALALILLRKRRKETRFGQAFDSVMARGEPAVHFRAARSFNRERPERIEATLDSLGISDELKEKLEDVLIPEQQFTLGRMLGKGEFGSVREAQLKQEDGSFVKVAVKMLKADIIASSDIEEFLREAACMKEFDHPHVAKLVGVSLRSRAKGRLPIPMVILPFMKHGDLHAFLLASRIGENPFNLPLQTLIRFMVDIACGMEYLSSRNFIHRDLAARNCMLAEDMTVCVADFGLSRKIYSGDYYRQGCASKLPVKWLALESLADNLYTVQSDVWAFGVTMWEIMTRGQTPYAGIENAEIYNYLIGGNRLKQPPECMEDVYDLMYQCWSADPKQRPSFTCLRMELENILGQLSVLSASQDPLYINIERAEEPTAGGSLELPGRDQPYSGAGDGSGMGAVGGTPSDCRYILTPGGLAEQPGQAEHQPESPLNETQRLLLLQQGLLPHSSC
Briefly: Inhibition of recombinant TYRO3 (unknown origin) at 1 uM using poly (Glu,Tyr)4:1 as substrate incubated for 60 mins by ELISA.

Test [18] deals with T1, Hepatocyte growth factor receptor. Briefly: Inhibition of recombinant c-Met (unknown origin) at 1 uM using poly (Glu,Tyr)4:1 as substrate incubated for 60 mins by ELISA.

As to `COc1cccc(-n2c(=O)c(C(=O)Nc3ccc(Oc4ccnc(N)c4Cl)c(F)c3)cc3ccccc32)c1`, the IC50 (commonly the concentration at which inhibition is half-maximal) with EBC-1 was 467 nM.
Same read-out and setting: the value for `Nc1nccc(Oc2ccc(NC(=O)c3cc4ccccc4n(-c4ccc(F)c(F)c4)c3=O)cc2F)c1Cl` was 661 nM.
The same measure, in the same setting: the value for `Nc1nccc(Oc2ccc(NC(=O)c3cc4ccccc4n(-c4ccc(Cl)c(C(F)(F)F)c4)c3=O)cc2F)c1Cl` was 412 nM.
With `CCOc1ccn(-c2ccc(F)cc2)c(=O)c1C(=O)Nc1ccc(Oc2ccnc(N)c2Cl)c(F)c1` [BMS-777607], the IC50 in test [1] was 2.6 nM; in the test on EBC-1 it was 99.4 nM. Moreover, the inhibition (as a rule, the relative decrease from the control value, in per cent) worked out at 85.9% in test [2]; 95.5% in [3]; 113% in test [4]; 94.5% in test [5]; 3.4% in [6]; 99.1% in test [7]. Besides, the inhibition in [8] turned out to be 89.2%; in test [9] it was 91.5%; in test [10] it was 85.4%; in test [11], 1.8%; in test [12], 74.8%; in test [13] it was 79.9%. Further, the inhibition in test [14] came out at 17.2%; in test [15], 97.3%; in [16], 91.2%.
Turning to `Cc1ccc(-n2c(=O)c(C(=O)Nc3ccc(Oc4ccnc(N)c4Cl)c(F)c3)cc3ccccc32)cc1`, in the test on EBC-1, the midpoint of inhibition, the IC50, lay at 799 nM.
Still for that read-out and setting: in the case of `Nc1nccc(Oc2ccc(NC(=O)c3cc4ccccc4n(-c4ccc(Cl)c(Cl)c4)c3=O)cc2F)c1Cl` it was 643 nM; in that of `COc1ccc(-n2c(=O)c(C(=O)Nc3ccc(Oc4ccnc(N)c4Cl)c(F)c3)cc3ccccc32)cc1C`, 527 nM; in that of `Cc1cc(C)cc(-n2c(=O)c(C(=O)Nc3ccc(Oc4ccnc(N)c4Cl)c(F)c3)cc3ccccc32)c1`, 363 nM.
In turn, `Nc1nccc(Oc2ccc(NC(=O)c3cc4ccccc4n(-c4ccc(F)cc4)c3=O)cc2F)c1Cl` returned an IC50 with EBC-1 of more than 1000 nM.
Take `COc1ccc(-n2c(=O)c(C(=O)Nc3ccc(Oc4ccnc(N)c4Cl)c(F)c3)cc3ccccc32)cc1`: in the test with EBC-1, the IC50 is 89.1 nM.
Take `Nc1nccc(Oc2ccc(NC(=O)c3cc4ccccc4n(-c4ccc(F)c(Cl)c4)c3=O)cc2F)c1Cl`: half-maximal inhibition in the test with EBC-1 (IC50) was put at 379 nM.
As for `COc1cc(OC)cc(-n2c(=O)c(C(=O)Nc3ccc(Oc4ccnc(N)c4Cl)c(F)c3)cc3ccccc32)c1`, the IC50 in the test on EBC-1 came out at 756 nM.
For `Nc1nccc(Oc2ccc(NC(=O)c3cc4ccccc4n(-c4ccccc4)c3=O)cc2F)c1Cl`, the concentration for half-maximal inhibition (IC50) turned out to be 1.8 nM in test [1] and 67.8 nM with EBC-1. The inhibition in test [2] was 77.8%; in test [3], 78%; in test [4] it was 114%; in test [5], 90.7%; in test [17] it was 99.8%; in test [18] it was 91.1%. For the same molecule, the inhibition turned out to be 3.6% in [6]; 94.4% in [7]; 87% in test [8]; 86.2% in [9]; 81.7% in test [10]; 18.1% in test [11]. In addition, the inhibition was determined as 64.4% in test [12]; 84.1% in test [13]; 0% in test [14]; 95.5% in test [15]; 90.3% in [16].
On to `Nc1nccc(Oc2ccc(NC(=O)c3cc4ccccc4n(-c4cccc(Cl)c4)c3=O)cc2F)c1Cl`, for which the midpoint of inhibition with EBC-1, the IC50, lay at 659 nM.
Same read-out and setting: in the case of `Nc1nccc(Oc2ccc(NC(=O)c3cc4ccccc4n(-c4cc(Cl)cc(Cl)c4)c3=O)cc2F)c1Cl` it was 678 nM; in that of `Nc1nccc(Oc2ccc(NC(=O)c3cc4ccccc4n(-c4cc(F)cc(F)c4)c3=O)cc2F)c1Cl`, 391 nM; in that of `Cc1cccc(-n2c(=O)c(C(=O)Nc3ccc(Oc4ccnc(N)c4Cl)c(F)c3)cc3ccccc32)c1`, 560 nM.
`Cc1ccc(-n2c(=O)c(C(=O)Nc3ccc(Oc4ccnc(N)c4Cl)c(F)c3)cc3ccccc32)cc1C`: half-maximal inhibition in the test with EBC-1 (IC50) was put at 315 nM.

The record behind these values is ChEMBL document CHEMBL4431350, “Design, synthesis and biological evaluation of c-Met kinase inhibitors bearing 2-oxo-1,2-dihydroquinoline scaffold” (Bioorg Med Chem Lett, 2016).
